Reference: patent US20250195556A1, “COMPOSITIONS, KITS, AND METHODS TO INDUCE ACQUIRED CYTORESISTANCE USING STRESS PROTEIN INDUCERS” (FRED HUTCHINSON CANCER RESEARCH CENTER, priority 2014, published 2025)

Test system: Male CD-1 mice
Experiment: Glycerol model of rhabdomyolysis-induced AKI (Example 4)
Type: in vivo
Conditions: IV pretreatment 18 hours before glycerol; 18 hours after glycerol
Procedure: Assessments of cytoresistance. Glycerol model of rhabdomyolysis-induced AKI. Twenty mice were divided into 4 equal groups (controls, mice treated with N-Mgb, SnPP, and mice treated with N-Mgb+SnPP tail vein injections) as described previously. 18 hours later, the mice were briefly anesthetized with isoflurane and immediately injected with 9 mL/kg of 50% glycerol, administered in equally divided doses into each hind limb. At 18 hours after glycerol injection, the mice were anesthetized with pentobarbital, the abdomen was opened, a blood sample for BUN and creatinine assessments was obtained from the vena cava, and the kidneys were resected. The control post-glycerol group and the N-Mgb+SnPP-pretreated glycerol group had kidney sections stained with H&E.
Calculations and statistics. All values are given as the mean […] standard error of the mean. Statistical comparisons were made by unpaired Student's t test. If multiple comparisons were made, the Bonferroni correction was applied. The severity of renal histologic injury in the glycerol AKI model was graded on a […] (least to most severe tubular necrosis and cast formation observed). The histologic results were compared by Wilcoxon rank sum test. Statistical significance was taken as a P value of <0.05.

C=Cc1c2[n-]c(c1C)/C=c1\[n-]/c(c(C)c1C=C)=C\c1[n-]c(c(CCC(=O)O)c1C)/C=c1\[n-]c(c(C)c1CCC(=O)O)=C2.[Sn+4] [SnPP, tin protoporphyrin, reference compound]
Protection against glycerol-induced AKI (BUN/creatinine levels): virtually no effect
